pEC50: −log10 of the molar value. Where two headings read alike, the source gives them in different places.
Tests used:
human lymphocytes = details: MTT, cited from earlier work
MCF-7 cells = experiment: MCF-7 cell proliferation assay (MTT reduction); type: cell-based, human; details: MCF-7 cells, MTT
Protocol: MCF-7 cell line which is sensitive to estrogen (ERα^+) was kindly provided by Dr. Sari Tojkander (Department of Veterinary Biosciences, Faculty of Veterinary Medicine, University of Helsinki). Cells were usually grown in T25 or T75 flasks containing DMEM with or without phenol red and supplemented with 7–10% FBS and 4 mM L-glutamine at 37°C in 5% CO2/95% humidified atmosphere. In order to eliminate the disturbing effect of hormones usually present in FBS, cell culture medium supplemented with commercially available charcoal-stripped FBS and 4 mM L-glutamine (SF medium) was used for experiments.
The effect of EEDCs on the proliferation of MCF-7 cells was assessed as previously described by measuring the capacity of the cells in each well to reduce MTT reagent (Van Meeuwen et al. [2007]). Approximately 5000 cells/200 μL of SF medium containing DMEM without phenol red, 5% charcoal-stripped FBS, and 4 mM L-glutamine were seeded per well in a 96-well cell culture plate. On day 2, cells were treated with the SF medium containing test compounds or vehicle. The final concentration of the solvents DMSO and EtOH was lower than 0.1%. On day 5, the SF medium containing test compounds or vehicle were refreshed. On day 8, cells were washed with PBS twice and then incubated with the SF medium containing 1 mg/mL MTT reagent for 1 h. The ability of MCF-7 cells to reduce MTT was measured at the reference wavelength of 595 nm using a microplate reader (Multiskan Ascent, Thermo Fisher Scientific). All the exposures were in triplicate.
The dose-response curves of test samples were plotted against logarithmic-transformed concentrations.

human ERα = biological target: T1, human ERα (Homo sapiens, UniProt P03372); experiment: Yeast bioluminescent assay, S. cerevisiae BMAEREluc/ERα (ERE-luc reporter); type: cell-based; details: S. cerevisiae BMAEREluc/ERα, about 2.5 h incubation, 5% EtOH vehicle; read-out: EC50 (estrogenic potency, luminescence)
T1 construct: expressed in transfected cells; host or cells: Saccharomyces cerevisiae BMAEREluc/ERα (recombinant yeast, gift of Dr. Johanna Rajasärkkä, University of Helsinki)
T1 sequence (P03372 1-595): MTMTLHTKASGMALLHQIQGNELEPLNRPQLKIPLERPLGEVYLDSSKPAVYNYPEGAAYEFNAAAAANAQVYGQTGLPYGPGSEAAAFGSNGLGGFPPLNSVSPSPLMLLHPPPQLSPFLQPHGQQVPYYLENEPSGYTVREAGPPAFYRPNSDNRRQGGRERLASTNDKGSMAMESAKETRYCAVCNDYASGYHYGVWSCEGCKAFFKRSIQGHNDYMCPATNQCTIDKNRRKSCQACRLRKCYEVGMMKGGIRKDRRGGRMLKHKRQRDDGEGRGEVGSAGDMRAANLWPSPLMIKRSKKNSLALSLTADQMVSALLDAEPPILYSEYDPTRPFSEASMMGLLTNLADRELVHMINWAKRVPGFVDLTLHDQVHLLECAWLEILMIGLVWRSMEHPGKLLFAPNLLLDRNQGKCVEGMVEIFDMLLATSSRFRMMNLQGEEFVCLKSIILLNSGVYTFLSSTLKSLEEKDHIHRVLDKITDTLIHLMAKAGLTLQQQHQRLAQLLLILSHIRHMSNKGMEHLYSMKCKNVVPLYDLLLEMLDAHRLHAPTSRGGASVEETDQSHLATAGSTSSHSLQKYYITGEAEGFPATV
Protocol: Yeast bioluminescent assay was performed as previously described (Omoruyi and Pohjanvirta [2018]). Two recombinant yeasts, Saccharomyces cerevisiae BMAEREluc/ERα and Saccharomyces cerevisiae BMA64/luc, were kindly provided by Dr. Johanna Rajasärkkä, Department of Food and Environmental Sciences, Faculty of Agriculture and Forestry, University of Helsinki. In the BMAEREluc/ERα, human ERα is expressed. After estrogen-like chemicals bind to ERα, the dimerized receptor binds to a specific DNA sequence called estrogen response element (ERE), in the promotor region of the luc reporter gene, inducing its expression. In BMA64/luc, the luciferase is expressed constitutively, and this strain can be used for the evaluation of cytotoxicity of test compounds. […]
Next, 90 μL of cultured yeasts containing 1:20 luciferin solution (0.042 g luciferin dissolved in 9.75 mL of 0.2 M trisodium citrate, and 5.525 mL of 0.2 M citrate, pH 5) was pipetted into every well of a white 96-well flat-bottom plate, and 10 μL of test compounds in a defined concentration range (diluted in 5% EtOH) were added. […] The luminescence measurement was performed with Luminoskan Ascent microplate luminometer (Thermo Labsystems) using the recommended settings as follows: 1000 ms integration time, single measurement mode, shaking at 60 rpm for 5 s prior to measurement. […]

S. cerevisiae BMA64/luc = details: values higher than 2 are considered toxic
Protocol: Yeast bioluminescent assay was performed as previously described (Omoruyi and Pohjanvirta [2018]). Two recombinant yeasts, Saccharomyces cerevisiae BMAEREluc/ERα and Saccharomyces cerevisiae BMA64/luc, were kindly provided by Dr. Johanna Rajasärkkä, Department of Food and Environmental Sciences, Faculty of Agriculture and Forestry, University of Helsinki. In the BMAEREluc/ERα, human ERα is expressed. After estrogen-like chemicals bind to ERα, the dimerized receptor binds to a specific DNA sequence called estrogen response element (ERE), in the promotor region of the luc reporter gene, inducing its expression. In BMA64/luc, the luciferase is expressed constitutively, and this strain can be used for the evaluation of cytotoxicity of test compounds.
Both strains were revived from glycerol stock solution on agar and broth forms of synthetic complete medium supplemented with the required amino acids. After the absence of contamination was confirmed by observing single colonies’ morphology on agar plate, approximately 10 μL of cultured yeasts in broth was transferred to 4 mL of synthetic defined (SD) medium supplemented with the required amino acids. The culture was incubated at 30°C on a shaker incubator (200 rpm). After 24-h incubation, the culture was diluted with SD broth to reach the optimal density (OD600) of 0.4 CFU/mL. Subsequently, the culture was incubated in the same incubation condition until the OD600 reached 0.6–0.7 CFU/mL.
Next, 90 μL of cultured yeasts containing 1:20 luciferin solution (0.042 g luciferin dissolved in 9.75 mL of 0.2 M trisodium citrate, and 5.525 mL of 0.2 M citrate, pH 5) was pipetted into every well of a white 96-well flat-bottom plate, and 10 μL of test compounds in a defined concentration range (diluted in 5% EtOH) were added. The plate was incubated at 30°C for approximately 2.5 h, and was then shaken briefly. The luminescence measurement was performed with Luminoskan Ascent microplate luminometer (Thermo Labsystems) using the recommended settings as follows: 1000 ms integration time, single measurement mode, shaking at 60 rpm for 5 s prior to measurement.
Each concentration of test compounds and controls in the assay was tested in triplicate, and the experiment was performed twice.
* The Correction Factor is the luminescence of the strain BMA64/luc with blank solvent divided by the luminescence of the control strain with the sample. Values higher than 2 are considered toxic (Leskinen et al. 2005).
* The Correction Factor is the luminescence of the strain BMA64/luc with blank solvent divided by the luminescence of the control strain with the sample. Values higher than 2 are considered toxic (Leskinen et al. 2005). […] Each experiment was performed in triplicate.

mice = tested on: mice; design: method as in Poul et al. [2009]; details: 20, 200 or 1000 mg/kg twice, 24-h interval, oral gavage; ref Poul et al. [2009]; cited from earlier work
[1] = tested on: estrogen signaling cascade; design: method as in Datta and Lundin-Schiller [2008]; Axon et al. [2012]; details: ref Datta and Lundin-Schiller [2008]; Axon et al. [2012]; cited from earlier work

SMILES: O=C([O-])C1=NN(c2ccc(S(=O)(=O)[O-])cc2)C(=O)C1N=Nc1ccc(S(=O)(=O)[O-])cc1.[Na+].[Na+].[Na+] (stereo not shown) [tartrazine]
- cytotoxicity to human lymphocytes (human lymphocytes; 0.25–64 mM, ref Soares et al. [2015]): not cytotoxic
- cytotoxicity to human lymphocytes (human lymphocytes; 4 and 8 mM, ref Mpountoukas et al. [2010]): cytotoxic
- efficacy (maximum induction of cell growth) compared with 17β-estradiol (MCF-7 cells): about one third
- pEC50 (MCF-7 cells; hormone-depleted medium, read-out: EC50 (proliferative effect)): 8.13
- pEC50 (human ERα): 10.00
- Correction Factor (S. cerevisiae BMA64/luc; 5% DMSO, 10^−4 M): 3.05±0.70
- Correction Factor (S. cerevisiae BMA64/luc; 5% DMSO, 10^−6 M): 2.77±0.44
- Correction Factor (S. cerevisiae BMA64/luc; 5% DMSO, 10^−8 M): 2.05±0.32
- Correction Factor (S. cerevisiae BMA64/luc; 5% DMSO, 10^−10 M): 2.60±0.54
- Correction Factor (S. cerevisiae BMA64/luc; 5% DMSO, 10^−12 M): 3.09±0.57
- Correction Factor (S. cerevisiae BMA64/luc; 5% DMSO, 10^−14 M): 3.43±0.66
- Correction Factor (S. cerevisiae BMA64/luc; 5% ethanol, 10^−4 M): 0.99±0.08
- Correction Factor (S. cerevisiae BMA64/luc; 5% ethanol, 10^−6 M): 0.94±0.12
- Correction Factor (S. cerevisiae BMA64/luc; 5% ethanol, 10^−8 M): 0.95±0.09
- Correction Factor (S. cerevisiae BMA64/luc; 5% ethanol, 10^−10 M): 1.36±0.30
- Correction Factor (S. cerevisiae BMA64/luc; 5% ethanol, 10^−12 M): 1.10±0.26
- Correction Factor (S. cerevisiae BMA64/luc; 5% ethanol, 10^−14 M): 1.14±0.23
- mutagenic or cytotoxic effects in mice (mice): did not elicit mutagenic or cytotoxic effects
- concentration range of estrogenic effect in vitro [1]: 1 to 10000 pM
